Results on 20 molecules are retold here after patent publication US7030138B2, “Benzamidine derivatives” (Sankyo Company, Limited, priority 2001, dated 2006).

Structures are written as SMILES. Where a name gives a salt, the structure may show the parent alone.

The target in the first assay is T1, bovine trypsin (Bos taurus, UniProt P00760).
T1 construct: purchased Sigma
T1 sequence (P00760 24-246): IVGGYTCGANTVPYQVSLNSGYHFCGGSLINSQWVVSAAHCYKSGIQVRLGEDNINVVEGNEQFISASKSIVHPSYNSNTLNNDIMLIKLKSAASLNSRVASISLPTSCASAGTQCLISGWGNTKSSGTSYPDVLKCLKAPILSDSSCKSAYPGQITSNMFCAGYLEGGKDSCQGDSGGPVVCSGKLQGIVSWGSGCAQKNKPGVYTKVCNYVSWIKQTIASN
The assay is described as follows: Determination of anti-trypsin activity (S-2222 coloring substrate, absorbance at 405 nm). Type of assay: biochemical. Particulars: bovine trypsin 0.25 μg-protein/ml, S-2222 0.4 mM, Tris buffer pH 8.4, room temperature, 5 minutes; read-out: Inhibitory Action against Trypsin Activity (IC50 (nM)). On the procedure:
Determination of Anti-trypsin Activity
Anti-trypsin activity was determined according to methods described by Taniuchi et al. [Thromb. Haemost., 79, 543 (1998)], which were partially modified. S-2222, a coloring substrate (5 μl, final concentration: 0.4 mM, Daiichi Pure Chemicals Co., Ltd.) and the test compound (5 μl) were mixed with Tris hydrochloride buffered solution (50 mM, 85 μl, pH: 8.4) containing NaCl (0.9%). To this solution, bovine trypsin (5 μl, final concentration: 0.25 μg-protein/ml, Sigma) was added and the reaction was started. In the control group, distilled water was added to the Tris-buffered solution instead of the test compound. The reaction mixture (in total: 0.1 ml) was incubated at room temperature. Optical absorbance was continuously determined at 405 nm with a 96-well microplate reader (Model 550, Biorad) and increase in the absorbance for 5 minutes was calculated as an indicator of trypsin activity. To assess anti-trypsin activities of the test compounds, concentrations of the test compounds to inhibit the trypsin activity by 50% (IC50) were calculated.
Regarding `N=CN1CCC(Oc2ccc(N(C/C=C/c3cccc(C(=N)N)c3)S(=O)(=O)CC(=O)O)cc2Cl)CC1` [Example 48, N-13-(3-Amidinophenyl)-2-(E)-propenyl]-N-[3-chloro-4-(1-formimidoylpiperidin-4-yloxy]phenyl]sulfamoylacetic acid dihydrochloride], the IC50 worked out at 1200 nM.

Turning to `N=C(N)c1cccc(/C=C/CN(c2ccc(OC3CCN(C4=NCCC4)CC3)c(C(F)(F)F)c2)S(=O)(=O)CC(=O)O)c1` [Example 78, N-[3-(3-Amidinophenyl)-2-(E)-propenyl]-N-[4-[1-(4,5-dihydro-3H-pyrrol-2-yl)piperidin-4-yloxy]-3-trifluoromethylphenyl]sulfamoylacetic acid dihydrochloride], the IC50 is 5300 nM.

Take `N=C(N)c1cccc(/C=C/CN(c2ccc(OC3CCN(C4=NCCC4)CC3)c(Cl)c2)S(=O)(=O)CC(=O)O)c1` [Example 54, N-[3-(3-Amidinophenyl)-2-(E)-propenyl]-N-[3-chloro-4-[1-(4,5-dihydro-3H-pyrrol-2-yl)piperidin-4-yloxy]phenyl]sulfamoylacetic acid dihydrochloride]: the IC50 came out at 2200 nM.

With `CCOC(=O)CS(=O)(=O)N(C/C=C/c1cccc(C(=N)N)c1)c1ccc(OC2CCN(C3=NCCC3)CC2)c(C)c1` [Example 65, Ethyl N-[3-(3-amidinophenyl)-2-(E)-propenyl]-N-[4-[1-(4,5-dihydro-3H-pyrrol-2-yl)piperidin-4-yloxy]-3-methylphenyl]sulfamoylacetate dihydrochloride], the IC50 is 2300 nM.

For another assay, the target named is T2, human factor-Xa (Homo sapiens, UniProt P00742).
T2 construct: purchased Cosmobio Co., Ltd
T2 sequence (P00742 235-488 limits assumed): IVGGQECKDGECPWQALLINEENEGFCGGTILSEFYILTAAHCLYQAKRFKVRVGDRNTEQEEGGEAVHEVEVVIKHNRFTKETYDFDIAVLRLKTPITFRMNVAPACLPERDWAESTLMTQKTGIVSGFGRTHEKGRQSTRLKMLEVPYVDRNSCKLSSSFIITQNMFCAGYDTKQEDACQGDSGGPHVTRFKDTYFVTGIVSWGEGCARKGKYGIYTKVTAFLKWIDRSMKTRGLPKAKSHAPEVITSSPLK
T2 sequence (P00742 41-179 partner limits assumed): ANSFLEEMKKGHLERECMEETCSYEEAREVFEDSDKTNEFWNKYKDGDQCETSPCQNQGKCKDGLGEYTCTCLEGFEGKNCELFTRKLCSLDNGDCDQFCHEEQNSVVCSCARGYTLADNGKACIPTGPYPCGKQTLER
The assay is described as follows: Determination of anti-factor Xa activity (S-2222 coloring substrate, absorbance at 405 nm). Particulars: human factor-Xa 0.25 unit/ml, S-2222 0.4 mM, Tris buffer pH 8.4, room temperature, 5 minutes; read-out: Inhibitory Action against Factor Xa Activity (IC50 (nM)). Type of assay: biochemical. On the procedure: Determination of Anti-factor Xa Activity
Anti-factor Xa activity was determined according to methods described by Hara et al. [Thrombo. Haemost., 71, 314 (1994)], which were slightly modified. S-2222, a coloring substrate (0.4 mM, Daiichi Pure Chemicals Co., Ltd.) and the test compounds were mixed in Tris hydrochloride buffered solution (50 mM, pH: 8.4) containing NaCl (0.9%). To this solution, human factor-Xa (0.25 unit/ml, Cosmobio Co., Ltd.) was added and the reaction was started. In the control group, distilled water was added to the Tris-buffered solution instead of the test compound. The reaction mixture (in total: 0.1 ml) was incubated at room temperature for 5 minutes. Optical absorbance of the reaction mixture was continuously determined at 405 nm with a 96-well microplate reader (Model 550, Biorad) and increase in the absorbance for 5 minutes was calculated as an indicator of factor Xa activity. To assess anti-factor Xa activities of the test compounds, concentrations of the test compounds to inhibit the factor Xa activity by 50% (IC50) were calculated.
As for `N=CN1CCC(Oc2ccc(N(C/C=C/c3cccc(C(=N)N)c3)S(=O)(=O)CC(=O)O)cc2Cl)CC1` [Example 48, N-13-(3-Amidinophenyl)-2-(E)-propenyl]-N-[3-chloro-4-(1-formimidoylpiperidin-4-yloxy]phenyl]sulfamoylacetic acid dihydrochloride], the IC50 was determined as 5.8 nM.

As for `N=C(N)c1cccc(/C=C/CN(c2ccc(OC3CCN(C4=NCCC4)CC3)c(C(F)(F)F)c2)S(=O)(=O)CC(=O)O)c1` [Example 78, N-[3-(3-Amidinophenyl)-2-(E)-propenyl]-N-[4-[1-(4,5-dihydro-3H-pyrrol-2-yl)piperidin-4-yloxy]-3-trifluoromethylphenyl]sulfamoylacetic acid dihydrochloride], the IC50 turned out to be 11 nM.

For the molecule `Cc1cc(N(C/C=C/c2cccc(C(=N)N)c2)S(=O)(=O)CC(=O)O)ccc1OC1CCN(C2=NCCCC2)CC1` [Example 68, N-[3-(3-Amidinophenyl)-2-(E)-propenyl]-N-[3-methyl-4-(2,3,4,5-tetrahydropyridin-6-yl)piperidin-4-yloxy]phenyl]sulfamoylacetic acid dihydrochloride], the IC50 worked out at 15 nM.

For `N=C(N)c1cccc(/C=C/CN(c2ccc(OC3CCN(C4=NCCC4)CC3)c(Cl)c2)S(=O)(=O)CC(=O)O)c1` [Example 54, N-[3-(3-Amidinophenyl)-2-(E)-propenyl]-N-[3-chloro-4-[1-(4,5-dihydro-3H-pyrrol-2-yl)piperidin-4-yloxy]phenyl]sulfamoylacetic acid dihydrochloride], the IC50 stood at 7 nM.

Regarding `N=C(N)c1cccc(/C=C/CN(c2ccc(OC3CCN(CCc4ccccc4)CC3)c(Cl)c2)S(=O)(=O)CC(=O)O)c1` [Example 12, N-[3-(3-Amidinophenyl)-2-(E)-propenyl]-N-[3-chloro-4-(1-phenethylpiperidin-4-yloxy)phenyl]sulfamoylacetic acid dihydrochloride], the IC50 worked out at 13 nM.

In the case of `CCOC(=O)CS(=O)(=O)N(C/C=C/c1cccc(C(=N)N)c1)c1ccc(OC2CCN(C3=NCCSC3)CC2)c(Cl)c1` [Example 83, Ethyl N-[3-(3-amidinophenyl)-2-(E)-propenyl]-N-[3-chloro-4-[1-(5,6-dihydro-2H-[1,4]thiazin-3-yl)piperidin-4-yloxy]phenyl]sulfamoylacetate dihydrochloride], the IC50 came to 13 nM.

Regarding `CCN=CN1CCC(Oc2ccc(N(CC=Cc3cccc(C(=N)N)c3)S(=O)(=O)CC(=O)OCC)cc2Cl)CC1` [Example 86, Ethyl N-[3-(3-amidinophenyl)-2-(E)-propenyl]-N-[3-chloro-4-[1-(N-ethylformimidoyl)piperidin-4-yloxy]phenyl]sulfamoylacetate dihydrochloride], the IC50 came out at 15 nM.

As for `N=C(N)c1cccc(/C=C/CN(c2ccc(OC3CCN(C4CCCC4)CC3)c(Cl)c2)S(=O)(=O)CC(=O)O)c1` [Example 38, N-[3-(3-Amidinophenyl)-2-(E)-propenyl]-N-[3-chloro-4-(1-cyclopentylpiperidin-4-yloxy)phenyl]sulfamoylacetic acid dihydrochloride], the IC50 was 12 nM.

Turning to `CCN1CCC(Oc2ccc(N(C/C=C/c3cccc(C(=N)N)c3)S(=O)(=O)CC(=O)O)cc2Cl)CC1` [Example 4, N-[3-(3-Amidinophenyl)-2-(E)-propenyl]-N-[3-chloro-4-(1-ethylpiperidin-4-yloxy)phenyl]sulfamoylacetic acid dihydrochloride], the IC50 amounted to 10 nM.

On to `N=C(N)c1cccc(/C=C/CN(c2ccc(OC3CCN(C(=N)c4ccccc4)CC3)c(Cl)c2)S(=O)(=O)CC(=O)O)c1` [Example 52, N-[3-(3-Amidinophenyl)-2-(E)-propenyl]-N-[4-(1-iminophenylmethylpiperidin-4-yloxy)-3-chlorophenyl]sulfamoylacetic acid dihydrochloride], for which the IC50 amounted to 7.8 nM.

Consider `N=C(N)c1cccc(/C=C/CN(c2ccc(OC3CCN(C4=NCCCC4)CC3)c(Cl)c2)S(=O)(=O)CC(=O)O)c1` [Example 56, N-[3-(3-Amidinophenyl)-2-(E)-propenyl]-N-[3-chloro-4-[1-(2,3,4,5-tetrahydropyridin-6-yl)piperidin-4-yloxy]phenyl]sulfamoylacetic acid dihydrochloride], for which the IC50 came to 10 nM.

On to `CCOC(=O)CS(=O)(=O)N(C/C=C/c1cccc(C(=N)N)c1)c1ccc(OC2CCN(C)CC2)c(C(F)(F)F)c1` [Example 45, Ethyl N-[3-(3-amidinophenyl)-2-(E)-propenyl]-N-[4-(1-methylpiperidin-4-yloxy)-3-trifluoromethylphenyl]sulfamoylacetate dihydrochloride], for which the half-maximal inhibitory concentration (IC50) was found to be 7.9 nM.

Turning to `CCOC(=O)CS(=O)(=O)N(C/C=C/c1cccc(C(=N)N)c1)c1ccc(OC2CCN(C3=NCCC3)CC2)c(C)c1` [Example 65, Ethyl N-[3-(3-amidinophenyl)-2-(E)-propenyl]-N-[4-[1-(4,5-dihydro-3H-pyrrol-2-yl)piperidin-4-yloxy]-3-methylphenyl]sulfamoylacetate dihydrochloride], the IC50 was 12 nM.

Turning to `CN1CCC(Oc2ccc(N(C/C=C/c3cccc(C(=N)N)c3)S(=O)(=O)CC(=O)O)cc2C(F)(F)F)CC1` [Example 46, N-[3-(3-Amidinophenyl)-2-(E)-propenyl]-N-[4–1-methylpiperidin-4-yloxy)-3-trifluoromethylphenyl]sulfamoylacetic acid dihydrochloride], the IC50 stood at 11 nM.

As for `CCOC(=O)CS(=O)(=O)N(C/C=C/c1cccc(C(=N)N)c1)c1ccc(OC2CCN(C3=NCCCC3)CC2)c(C)c1` [Example 67, Ethyl N-[3-(3-amidinophenyl)-2-(E)-propenyl]-N-[3-methyl-4-[1-(2,3,4,5-tetrahydropyridin-6-yl)piperidin-4-yloxy]phenyl]sulfamoylacetate dihydrochloride], the IC50 came out at 15 nM.

In the case of `N=C(N)c1cccc(/C=C/CN(c2ccc(OC3CCN(CCc4ccccn4)CC3)c(Cl)c2)S(=O)(=O)CC(=O)O)c1` [Example 36, N-[3-(3-Amidinophenyl)-2-(E)-propenyl]-N-[3-chloro-4-[1-[2-(2-pyridyl)ethyl]piperidin-4-yloxy]phenyl]sulfamoylacetic acid trihydrochloride], the IC50 is 13 nM.

On to `N=C(N)c1cccc(/C=C/CN(c2ccc(OC3CCN(C4=NCCCC4)CC3)c(C(F)(F)F)c2)S(=O)(=O)CC(=O)O)c1` [Example 80, N-[3-(3-Amidinophenyl)-2-(E)-propenyl]-N-[4-[1-(2,3,4,5-tetrahydropyridin-6-yl)piperidin-4-yloxy]-3-trifluoromethylphenyl]sulfamoylacetic acid dihydrochloride], for which the IC50 was 11 nM.

For `N=C(N)c1cccc(/C=C/CN(c2ccc(OC3CCN(Cc4ccccc4)CC3)c(Cl)c2)S(=O)(=O)CC(=O)O)c1` [Example 10, N-[3-(3-Amidinophenyl)-2-(E)-propenyl]-N-[4-(1-benzylpiperidin-4-yloxy)-3-chlorophenyl]sulfamoylacetic acid dihydrochloride], the IC50 is 15 nM.

On to `CCOC(=O)CS(=O)(=O)N(C/C=C/c1cccc(C(=N)N)c1)c1ccc(OC2CCN(C(=N)c3ccccc3)CC2)c(Cl)c1` [Example 51, Ethyl N-[3-(3-amidinophenyl)-2-(E)-propenyl]-N-[4-(1-iminophenylmethylpiperidin-4-yloxy)-3-chlorophenyl]sulfamoylacetate dihydrochloride], for which the IC50 came out at 6.9 nM.

Consider `CCOC(=O)CS(=O)(=O)N(C/C=C/c1cccc(C(=N)N)c1)c1ccc(OC2CCN(C3=NCCCC3)CC2)c(C(F)(F)F)c1` [Example 79, Ethyl N-[3-(3-amidinophenyl)-2-(E)-propenyl]-N-[4-[1-(2,3,4,5-tetrahydropyridin-6-yl)piperidin-4-yloxy]-3-trifluoromethylphenyl]sulfamoylacetate dihydrochloride], for which the IC50 worked out at 15 nM.

Usually IC50 stands for the midpoint of a concentration-inhibition curve.
